Earlier results on 4 compounds are cited in US20120289492A1, “METHODS OF TREATING MITOCHONDRIAL DISORDERS USING METALLOPORPHYRINS” (priority 2009, published 2012).

For series [1] the following is noted: safety studies in mice, monkeys and rats; phase 1 in amyotrophic lateral sclerosis patients; cited from earlier work.
The subject of another series is CD-1 Sod2−/− mice. The settings on record: cited from earlier work.

For `CCN1C=CN(CC)C1=C1C2=NC(=C(c3n(CC)cc[n+]3CC)C3=NC(=C(c4n(CC)cc[n+]4CC)c4ccc([n-]4)C(c4n(CC)cc[n+]4CC)=C4C=CC1=N4)C=C3)C=C2.[Cl-].[Cl-].[Cl-].[Cl-].[Cl-].[Mn+3]` [AEOL10150], the serious adverse events entry in series [1] is on record as “No serious adverse events have been found”. In the case of `[Cl-].[Mn+3].[O-]c1ccccc1C=NCCN=Cc1ccccc1[O-]` [EUK8], in the series on CD-1 Sod2−/− mice, the neurodegeneration entry was “ameliorated” and the spongiform encephalopathy entry is reported as “ameliorated”. As to `O=C(O)c1ccc(/C2=C3\C=CC(=N3)/C(c3ccc(C(=O)O)cc3)=c3/cc/c4[n]3[Mn]([Cl])[n]3c2ccc3/C(c2ccc(C(=O)O)cc2)=C2/C=CC(=N2)\C=4c2ccc(C(=O)O)cc2)cc1` [MnTBAP, manganese tetrakis 5, 10, 15, 20 . . . porphyrin], in the series on CD-1 Sod2−/− mice, the cardiomyopathy entry is “ameliorated” and the neurodegeneration result is recorded as “but not neurodegeneration”. For the compound `COc1cccc(C=NCCN=Cc2cccc(OC)c2[O-])c1[O-].[Cl-].[Mn+3]` [EUK134], in the series on CD-1 Sod2−/− mice, the neurodegeneration result was “ameliorated” and the spongiform encephalopathy result is on record as “ameliorated”.
